{"source": "ChEMBL document CHEMBL6153040", "about": "“Discovery of the salicylaldehyde-based compound DDO-02267 as a lysine-targeting covalent inhibitor of ALKBH5” (Eur J Med Chem, 2025)", "key": {"RNA demethylase ALKBH5 [1]": {"biological_target": "T1, RNA demethylase ALKBH5 (Homo sapiens, UniProt Q6P6C2)", "assay": "Binding affinity to ALKBH5 (66 to 292 residues) (unknown origin) extracted from Escherichia coli BL21 (DE3) cells assessed as dissociation constant incubated for 4 hrs by MST analysis"}, "MOLM-13 [2]": {"tested_on": "MOLM-13", "assay": "Induction of cell cycle arrest in human MOLM-13 cells assessed as accumulation of cells at S phase at 80 uM incubated for 72 hrs by flow cytometry analysis (reference value: 17.47 %)", "type": "functional"}, "MOLM-13 [3]": {"tested_on": "MOLM-13", "assay": "Induction of apoptosis in human MOLM-13 cells assessed as late apoptotic cells at 80 uM incubated for 72 hrs by Annexin V FITC/PI staining based flow cytometry analysis (reference value: 4.28 %)", "type": "functional"}, "RNA demethylase ALKBH5 [4]": {"biological_target": "T1, RNA demethylase ALKBH5", "assay": "Binding affinity to ALKBH5 (66 to 292 residues) (unknown origin) extracted from Escherichia coli BL21 (DE3) cells assessed as dissociation constant incubated for 5 hrs by MST analysis"}, "[5]": {"biological_target": "T2, Alpha-ketoglutarate-dependent dioxygenase FTO (Homo sapiens, UniProt Q9C0B1)", "T2 sequence (Q9C0B1 whole entry, the tested form may be a part)": "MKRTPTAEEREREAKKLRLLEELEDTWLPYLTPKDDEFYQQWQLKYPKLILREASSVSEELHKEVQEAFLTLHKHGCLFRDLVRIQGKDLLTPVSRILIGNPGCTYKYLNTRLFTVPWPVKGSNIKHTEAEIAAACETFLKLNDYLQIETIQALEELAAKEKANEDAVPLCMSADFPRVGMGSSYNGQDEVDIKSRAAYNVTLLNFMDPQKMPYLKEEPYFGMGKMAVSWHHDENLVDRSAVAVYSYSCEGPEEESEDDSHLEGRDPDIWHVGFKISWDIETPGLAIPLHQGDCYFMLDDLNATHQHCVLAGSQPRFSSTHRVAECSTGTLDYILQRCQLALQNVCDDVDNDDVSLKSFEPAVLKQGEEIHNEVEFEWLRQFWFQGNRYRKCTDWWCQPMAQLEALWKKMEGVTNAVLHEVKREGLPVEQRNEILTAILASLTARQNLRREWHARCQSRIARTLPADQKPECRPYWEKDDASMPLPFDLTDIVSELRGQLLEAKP", "assay": "Binding affinity to FTO (32 to 505 residues) (unknown origin) extracted from Escherichia coli BL21 (DE3) cells assessed as dissociation constant by ITC assay"}, "[6]": {"biological_target": "T2, Alpha-ketoglutarate-dependent dioxygenase FTO", "assay": "Inhibition of FTO (32 to 505 residues) (unknown origin) extracted from Escherichia coli BL21 (DE3) cells using m6A ssDNA as substrate incubated for 2 hrs by TBE-PAGE based restriction enzyme digestion assay"}, "RNA demethylase ALKBH5 [7]": {"biological_target": "T1, RNA demethylase ALKBH5", "assay": "Inhibition of ALKBH5 (66 to 292 residues) (unknown origin) extracted from Escherichia coli BL21 (DE3) cells using m6A ssDNA as substrate assessed as inactivation constant (Ki) measured after 6 hrs by fluorescence polarization assay"}, "[8]": {"tested_on": "RNA demethylase ALKBH5 (Homo sapiens), Q6P6C2 [K132E]", "sequence (Q6P6C2 whole entry K132E, the tested form may be a part)": "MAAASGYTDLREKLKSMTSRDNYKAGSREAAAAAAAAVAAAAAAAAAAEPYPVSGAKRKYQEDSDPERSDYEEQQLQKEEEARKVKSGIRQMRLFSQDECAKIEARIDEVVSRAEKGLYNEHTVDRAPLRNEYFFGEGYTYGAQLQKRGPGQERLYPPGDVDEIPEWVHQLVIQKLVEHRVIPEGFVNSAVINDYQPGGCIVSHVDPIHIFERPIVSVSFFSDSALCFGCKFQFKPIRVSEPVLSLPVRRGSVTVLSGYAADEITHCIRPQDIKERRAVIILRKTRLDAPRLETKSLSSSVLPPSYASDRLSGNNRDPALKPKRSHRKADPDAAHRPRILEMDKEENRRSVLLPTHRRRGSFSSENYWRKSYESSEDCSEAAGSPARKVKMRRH", "assay": "Inhibition of ALKBH5 K132E mutant (66 to 292 residues) (unknown origin) extracted from Escherichia coli BL21 (DE3) cells using m6A ssDNA as substrate at 0.5 to 100 uM incubated for 2 hrs by restriction enzyme digestion assay", "conditions": "dose 0.5-100 µM"}, "RNA demethylase ALKBH5 [9]": {"biological_target": "T1, RNA demethylase ALKBH5", "assay": "Inhibition of ALKBH5 (66 to 292 residues) (unknown origin) extracted from Escherichia coli BL21 (DE3) cells using m6A ssDNA as substrate measured after 20 mins by fluorescence polarization assay"}, "MOLM-13 [10]": {"tested_on": "MOLM-13", "assay": "Induction of cell cycle arrest in human MOLM-13 cells assessed as accumulation of cells at G2/M phase at 80 uM incubated for 72 hrs by flow cytometry analysis (reference value: 17.53 %)", "type": "functional"}, "[11]": {"biological_target": "T2, Alpha-ketoglutarate-dependent dioxygenase FTO", "assay": "Inhibition of FTO (32 to 505 residues) (unknown origin) extracted from Escherichia coli BL21 (DE3) cells by fluorescence polarization assay"}, "RNA demethylase ALKBH5 [12]": {"biological_target": "T1, RNA demethylase ALKBH5", "assay": "Induction of thermal stabilization of ALKBH5 in human MOLM-13 cells at 20 uM incubated for 30 min and measured after 3 mins incubation under 45 to 65 degreeC by […] assay", "type": "cell-based", "conditions": "time 33.0 min"}, "MOLM-13 [13]": {"tested_on": "MOLM-13", "assay": "Induction of cell cycle arrest in human MOLM-13 cells assessed as accumulation of cells at G0/G1 phase at 40 uM incubated for 72 hrs by flow cytometry analysis (reference value: 65.53 %)", "type": "functional"}, "RNA demethylase ALKBH5 [14]": {"biological_target": "T1, RNA demethylase ALKBH5", "assay": "Binding affinity to ALKBH5 (66 to 292 residues) (unknown origin) extracted from Escherichia coli BL21 (DE3) cells assessed as dissociation constant incubated for 1.5 hrs by MST analysis"}, "RNA demethylase ALKBH5 [15]": {"biological_target": "T1, RNA demethylase ALKBH5", "assay": "Inhibition of ALKBH5 (66 to 292 residues) (unknown origin) extracted from Escherichia coli BL21 (DE3) cells using m6A ssDNA as substrate measured after 240 mins by fluorescence polarization assay"}, "MOLM-13 [16]": {"tested_on": "MOLM-13", "assay": "Induction of apoptosis in human MOLM-13 cells assessed as early apoptotic cells at 40 uM incubated for 72 hrs by Annexin V FITC/PI staining based flow cytometry analysis (reference value: 4.32%)", "type": "functional"}, "[17]": {"assay": "Selectivity ratio of IC50 for ALKBH3 (unknown origin) to IC50 for ALKBH5 (66 to 292 residues) (unknown origin) extracted from Escherichia coli BL21 (DE3) cells by fluorescence polarization assay"}, "RNA demethylase ALKBH5 [18]": {"biological_target": "T1, RNA demethylase ALKBH5", "assay": "Inhibition of ALKBH5 (66 to 292 residues) (unknown origin) extracted from Escherichia coli BL21 (DE3) cells using m6A ssDNA as substrate measured immediately by fluorescence polarization assay"}, "RNA demethylase ALKBH5 [19]": {"biological_target": "T1, RNA demethylase ALKBH5", "assay": "Inhibition of ALKBH5 (66 to 292 residues) (unknown origin) extracted from Escherichia coli BL21 (DE3) cells using m6A ssDNA as substrate assessed as maximum inactivation rate constant (Kinact) measured after 6 hrs by fluorescence polarization assay"}, "MOLM-13 [20]": {"tested_on": "MOLM-13", "assay": "Induction of apoptosis in human MOLM-13 cells assessed as viable cells at 40 uM incubated for 72 hrs by Annexin V FITC/PI staining based flow cytometry analysis (reference value: 89.65%)", "type": "functional", "conditions": "read-out: Activity"}, "RNA demethylase ALKBH5 [21]": {"biological_target": "T1, RNA demethylase ALKBH5", "assay": "Inhibition of ALKBH5 (66 to 292 residues) (unknown origin) extracted from Escherichia coli BL21 (DE3) cells using m6A ssDNA as substrate measured after 6 hrs by fluorescence polarization assay"}, "MOLM-13 [22]": {"tested_on": "MOLM-13", "assay": "Induction of apoptosis in human MOLM-13 cells assessed as early apoptotic cells at 80 uM incubated for 72 hrs by Annexin V FITC/PI staining based flow cytometry analysis (reference value: 4.32%)", "type": "functional"}, "RNA demethylase ALKBH5 [23]": {"biological_target": "T1, RNA demethylase ALKBH5", "assay": "Inhibition of ALKBH5 (66 to 292 residues) (unknown origin) extracted from Escherichia coli BL21 (DE3) cells using m6A ssDNA as substrate incubated for 2 hrs by TBE-PAGE based restriction enzyme digestion assay"}, "MOLM-13 [24]": {"tested_on": "MOLM-13", "assay": "Downregulation of AXL protein expression levels in human MOLM-13 cells at 20 to 80 uM incubated for 72 hrs by Western blot analysis", "type": "functional, cell-based", "conditions": "dose 20-80 µM"}, "[25]": {"biological_target": "T3, Alpha-ketoglutarate-dependent dioxygenase alkB homolog 3 (Homo sapiens, UniProt Q96Q83)", "T3 sequence (Q96Q83 whole entry)": "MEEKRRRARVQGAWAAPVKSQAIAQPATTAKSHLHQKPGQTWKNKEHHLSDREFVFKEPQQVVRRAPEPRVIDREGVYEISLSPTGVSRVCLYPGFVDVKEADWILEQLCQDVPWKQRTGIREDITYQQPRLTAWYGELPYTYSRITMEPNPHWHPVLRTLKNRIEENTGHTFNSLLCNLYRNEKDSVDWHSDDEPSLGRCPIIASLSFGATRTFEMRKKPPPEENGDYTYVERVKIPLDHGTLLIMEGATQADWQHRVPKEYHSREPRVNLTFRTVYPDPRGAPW", "assay": "Inhibition of ALKBH3 (unknown origin) by restriction enzyme digestion method"}, "[26]": {"assay": "Selectivity ratio of IC50 for FTO (32 to 505 residues) (unknown origin) extracted from Escherichia coli BL21 (DE3) cells to IC50 for ALKBH5 (66 to 292 residues) (unknown origin) extracted from Escherichia coli BL21 (DE3) cells by restriction enzyme digestion assay"}, "[27]": {"assay": "Selectivity ratio of IC50 for ALKBH3 (unknown origin) to IC50 for ALKBH5 (66 to 292 residues) (unknown origin) extracted from Escherichia coli BL21 (DE3) cells by restriction enzyme digestion assay"}}, "note": "The source made the active and inactive calls. The rule behind the calls is not given here.", "data": [{"smiles": "O=Cc1cc(S(=O)(=O)NC(=O)c2cc(C(=O)O)ccn2)c2ccccc2c1O", "values": [{"measurement": "Kd", "setting": "RNA demethylase ALKBH5 [1]", "value": 0.65, "unit": "µM"}, {"measurement": "Activity", "setting": "MOLM-13 [2]", "value": 4.11, "unit": "%"}, {"measurement": "Activity", "setting": "MOLM-13 [3]", "value": 12, "unit": "%"}, {"measurement": "Kd", "setting": "RNA demethylase ALKBH5 [4]", "value": 0.56, "unit": "µM"}, {"measurement": "Kd", "setting": "[5]", "value": 27.6, "unit": "µM"}, {"measurement": "IC50", "setting": "[6]", "value": 19.7, "unit": "µM"}, {"measurement": "Ki", "setting": "RNA demethylase ALKBH5 [7]", "value": 0.41, "unit": "µM"}, {"measurement": "inhibition", "setting": "[8]", "value": "inactive"}, {"measurement": "IC50", "setting": "RNA demethylase ALKBH5 [9]", "value": 0.78, "unit": "µM"}, {"measurement": "Activity", "setting": "MOLM-13 [10]", "value": 22.22, "unit": "%"}, {"measurement": "IC50", "setting": "[11]", "value": 14.2, "unit": "µM"}, {"measurement": "Activity", "setting": "RNA demethylase ALKBH5 [12]", "value": "Active"}, {"measurement": "Activity", "setting": "MOLM-13 [13]", "value": 68.23, "unit": "%"}, {"measurement": "Kd", "setting": "RNA demethylase ALKBH5 [14]", "value": 1.14, "unit": "µM"}, {"measurement": "IC50", "setting": "RNA demethylase ALKBH5 [15]", "value": 0.26, "unit": "µM"}, {"measurement": "Activity", "setting": "MOLM-13 [16]", "value": 10.4, "unit": "%"}, {"measurement": "Ratio IC50", "setting": "[17]", "value": 20}, {"measurement": "IC50", "setting": "RNA demethylase ALKBH5 [18]", "value": 1.43, "unit": "µM"}, {"measurement": "Kinact", "setting": "RNA demethylase ALKBH5 [19]", "value": 14.2, "unit": "min⁻¹"}, {"measurement": "viability at 40 µM", "setting": "MOLM-13 [20]", "value": 83, "unit": "%"}, {"measurement": "IC50", "setting": "RNA demethylase ALKBH5 [21]", "value": 0.17, "unit": "µM"}, {"measurement": "Activity", "setting": "MOLM-13 [22]", "value": 9.16, "unit": "%"}, {"measurement": "IC50", "setting": "RNA demethylase ALKBH5 [23]", "value": 2.53, "unit": "µM"}, {"measurement": "Activity", "setting": "MOLM-13 [24]", "value": "Active"}, {"measurement": "IC50", "setting": "[25]", "value": 75.4, "unit": "µM"}, {"measurement": "Ratio IC50", "setting": "[26]", "value": 10}, {"measurement": "Ratio IC50", "setting": "[27]", "value": 30}]}]}
